Reference: US11999727B2 (Tango Therapeutics, Inc., priority 2020, dated 2024)
Read-outs that look alike come from different tables or passages of the source.

Tests used:
[1] = target: T1, PRMT5 (Homo sapiens, UniProt O14744); test: PRMT5 biochemical IC50 assay with no cofactor; settings: PRMT5, no cofactor
T1 construct: purchased Viva (custom protein)
From the text: Table 1 indicates IC50 values (μM) against PRMT5 for exemplary compounds in the presence of SAM as cofactor, with no cofactor, and with MTA as cofactor, respectively (columns 4-6). […] Ki values can be calculated from the IC50 values as described in the Examples section. As detailed in the Examples section, for the assay performed in the presence of SAM, IC50=Ki×1.5 (Ki=IC50/1.5).

[2] = target: T1, PRMT5; test: PRMT5 biochemical IC50 assay with MTA as cofactor; settings: PRMT5, MTA as cofactor; read-out: MTA IC50
[3] = test system: HAP1 MTAP-deleted cell line; test: Viability assay, MTAP-deleted cell line; assay type: cell-based; settings: Homo sapiens, read-out: HAP1 MTAP deleted viability
From the text: Table 1 additionally indicates IC50 values in a viability assay for the MTAP-deleted cell line (column 10), indicating the effect of treatment with compound on cell survival.

[4] = target: T1, PRMT5; test: PRMT5 biochemical IC50 assay with SAM as cofactor; settings: PRMT5, SAM as cofactor; read-out: SAM IC50
[5] = HAP1, viability assay, MTAP-deleted cell line
[6] = HAP1, viability IC50, MTAP-deleted cell line

T1 sequence (O14744 whole entry): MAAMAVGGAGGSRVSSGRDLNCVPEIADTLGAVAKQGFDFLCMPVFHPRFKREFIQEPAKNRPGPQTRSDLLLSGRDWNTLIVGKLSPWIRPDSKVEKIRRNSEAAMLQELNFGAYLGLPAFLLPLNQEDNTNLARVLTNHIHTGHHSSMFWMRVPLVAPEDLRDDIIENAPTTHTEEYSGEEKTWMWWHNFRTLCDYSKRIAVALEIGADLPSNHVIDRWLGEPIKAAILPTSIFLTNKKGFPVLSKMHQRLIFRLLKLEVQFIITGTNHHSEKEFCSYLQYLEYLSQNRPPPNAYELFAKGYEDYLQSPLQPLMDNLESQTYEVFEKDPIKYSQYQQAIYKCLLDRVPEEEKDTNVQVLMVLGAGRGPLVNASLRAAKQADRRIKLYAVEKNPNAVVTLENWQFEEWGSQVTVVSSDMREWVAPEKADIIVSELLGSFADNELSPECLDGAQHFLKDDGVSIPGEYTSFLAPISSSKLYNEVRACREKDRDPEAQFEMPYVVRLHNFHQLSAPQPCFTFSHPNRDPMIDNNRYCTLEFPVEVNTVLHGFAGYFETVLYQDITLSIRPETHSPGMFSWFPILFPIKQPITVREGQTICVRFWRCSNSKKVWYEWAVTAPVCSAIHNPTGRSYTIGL
T1 sequence (Q9BQA1 whole entry partner): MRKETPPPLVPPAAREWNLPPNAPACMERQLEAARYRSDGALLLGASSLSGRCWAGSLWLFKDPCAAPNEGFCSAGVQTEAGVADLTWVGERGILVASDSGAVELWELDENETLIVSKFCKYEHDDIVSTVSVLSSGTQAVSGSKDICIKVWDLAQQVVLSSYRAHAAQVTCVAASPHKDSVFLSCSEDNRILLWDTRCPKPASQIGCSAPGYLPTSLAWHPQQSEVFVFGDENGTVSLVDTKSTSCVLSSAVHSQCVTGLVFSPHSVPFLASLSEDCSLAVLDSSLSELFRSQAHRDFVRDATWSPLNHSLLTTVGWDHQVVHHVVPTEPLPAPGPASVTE

Row | IC50 ([1]; read-out: No Cofactor/rel IC50) [nM] | IC50 [2] [nM] | IC50 [4] [nM] | IC50 ([1]; read-out: No Cofactor/ rel IC50) [nM] | Structure (SMILES) | IC50 [3, 5] [nM] | IC50 [3, 6] [nM]
1 | > 500 | > 500 | > 500 |  | COc1ncc(NC(=O)C(=O)N2C[C@H](C)CC[C@H]2c2ccc3sc(C(F)(F)F)nc3c2)cc1C(N)=O (single isomer, unassigned) [Compound 1030] | > 10000 | 
2 | 50 to 500 | < 50 | 50 to 500 |  | C[C@@H]1CC[C@H](c2ccc(O)nc2)N(C(=O)C(=O)Nc2cncc(C(N)=O)c2)C1 (single isomer, unassigned) [Compound 401] | > 10000 | 
3 | > 500 | > 500 | > 500 |  | CNc1cccc([C@H]2CC[C@H](C)CN2C(=O)C(=O)Nc2cnc(N)c(C)c2)c1 (single isomer, unassigned) [Compound 450] | > 10000 | 
4 | > 500 | > 500 | > 500 |  | C[C@H]1CC[C@H](c2ccc(NS(C)(=O)=O)nc2)N(C(=O)C(=O)Nc2cncc(C(N)=O)c2)C1 (single isomer, unassigned) [Compound 985] | > 10000 | 
5 | > 500 | > 500 | > 500 |  | Cc1cc(NC(=O)C(=O)N2C[C@@H](C)CC[C@@H]2c2cccc3c2CCN3)cnc1N (single isomer, unassigned) [Compound 957] | > 10000 | 
6 | > 500 | > 500 | > 500 |  | Cc1cc(NC(=O)C(=O)N2C[C@H](C)CC[C@H]2c2ccc3sc(N)nc3c2)cnc1N (single isomer, unassigned) [Compound 981] | > 10000 | 
7 | > 500 | > 500 | > 500 |  | CCc1cc(NC(=O)C(=O)N2C[C@H](C)CC[C@H]2c2ccc3c(c2)C(=O)NC3)cnc1N (single isomer, unassigned) [Compound 695] |  | > 10000
8 | > 500 | > 500 | > 500 |  | CNc1ccc([C@H]2CC[C@H](C)CN2C(=O)C(=O)Nc2cncc(C(N)=O)c2)cn1 (single isomer, unassigned) [Compound 444] | > 10000 | 
9 | < 50 | < 50 | < 50 |  | Cc1cc(NC(=O)C(=O)N2C[C@H](C)CC[C@H]2c2ccc3cc[nH]c(=O)c3c2)cnc1N (single isomer, unassigned) [Compound 1031] | < 1000 | 
10 | > 500 | 50 to 500 | > 500 |  | NC(=O)CC1CCC2CN(C(=O)C(=O)Nc3cncc(C(N)=O)c3)CCC2C1 (centres unmarked) [Compound 420, 5-{2-[6-(Carbamoylmethyl)-decahydroisoquinolin-2-yl]-2-oxoacetamido}pyridine-3-carboxamide] | > 10000 | 
11 | > 500 | > 500 | > 500 |  | Cc1cc(NC(=O)C(=O)N2C[C@@H](C)CC[C@@H]2c2cccc3[nH]ccc23)cnc1N (single isomer, unassigned) [Compound 1038] | > 10000 | 
12 | > 500 | > 500 | > 500 |  | COc1ncc(NC(=O)C(=O)N2C[C@@H](C)CC[C@H]2C2CCCC2)cc1C(N)=O (single isomer, unassigned) [Compound 295] | > 10000 | 
13 | > 500 | > 500 | > 500 |  | Cc1cc(NC(=O)C(=O)N2C[C@@H](C)CC[C@@H]2[C@H]2CC[C@H](O)CC2)cnc1N (single isomer, unassigned) [Compound 434] | > 10000 | 
14 | > 500 | > 500 | > 500 |  | CCc1cc(NC(=O)C(=O)N2C[C@H](C)CC[C@H]2c2ccc3c(c2)CNC3=O)cnc1N (single isomer, unassigned) [Compound 699, N-(6-amino-5-ethylpyridin-3-yl)-2-(5-methyl-2-(1-oxoisoindolin-5-yl)piperidin-1-yl)-2-oxoacetamide] |  | > 10000
15 | > 500 | 50 to 500 | > 500 |  | NC(=O)c1cncc(NC(=O)C(=O)N2CC[C@H]3C[C@@H](O)CC[C@@H]3C2)c1 (racemic) [Compound 418, 5-[2-(6-Hydroxy-decahydroisoquinolin-2-yl)-2-oxoacetamido]pyridine-3-carboxamide] | > 10000 | 

Further lines, the molecule ahead of its results:

Row | Structure (SMILES) | IC50 ([1]; read-out: No Cofactor/rel IC50) [nM] | IC50 [2] [nM] | IC50 [4] [nM] | IC50 ([1]; read-out: No Cofactor/ rel IC50) [nM] | IC50 [3, 5] [nM] | IC50 [3, 6] [nM]
16 | C[C@@H]1CC[C@@H](c2cccc(Cl)c2)N(C(=O)C(=O)Nc2cncc(C(N)=O)c2)C1 (single isomer, unassigned) [Compound 441] | > 500 | > 500 | > 500 |  | > 10000 | 
17 | COc1ncc(NC(=O)C(=O)N2C[C@@H](C)CC[C@@H]2c2ccc(NS(C)(=O)=O)nc2)cc1C(N)=O (single isomer, unassigned) [Compound 999] | > 500 | > 500 | > 500 |  | > 10000 | 
18 | C[C@H]1CC[C@H](c2ccc(N[C@H](C)C(=O)N(C)C)cc2)N(C(=O)C(=O)Nc2cncc(C(N)=O)c2)C1 (racemic) [Compound 414, 5-[[2-[(2R,5S)-2-[4-[[(1R)-2-(Dimethylamino)-1-methyl-2-oxo-ethyl]amino]phenyl]-5-methyl-1-piperidyl]-2-oxo-acetyl]amino]pyridine-3-carboxamide] | 50 to 500 | 50 to 500 | 50 to 500 |  | > 10000 | 
19 | CCc1cc(NC(=O)C(=O)N2C[C@@H](C)CC[C@@H]2c2ccc(NS(C)(=O)=O)nc2)cnc1N (single isomer, unassigned) [Compound 983] | > 500 | > 500 | > 500 |  | > 10000 | 
20 | CC(=O)Nc1ccc([C@H]2CC[C@H](C)CN2C(=O)C(=O)Nc2cncc(C(N)=O)c2)cn1 (single isomer, unassigned) [Compound 905] | > 500 | > 500 | > 500 |  | > 10000 | 
21 | NC(=O)c1cncc(NC(=O)C(=O)N2CCCCC2C2CCCC2O)c1 (centres unmarked) [Compound 169, 5-{2-[2-(2-Hydroxycyclopentyl)piperidin-1-yl]-2-oxoacetamido}pyridine-3-carboxamide] |  | 50 to 500 | 50 to 500 | > 500 | > 10000 | 
22 | CCc1cc(NC(=O)C(=O)N2C[C@H](C)CC[C@H]2c2ccc3sc(N)nc3c2)cnc1N (single isomer, unassigned) [Compound 984] | > 500 | > 500 | > 500 |  | > 10000 | 
23 | C[C@H]1CC[C@H](c2ccc3sc(N)nc3c2)N(C(=O)C(=O)Nc2cncc(C(N)=O)c2)C1 (single isomer, unassigned) [Compound 987] | 50 to 500 | < 50 | 50 to 500 |  | 1000 to 10000 | 
24 | COc1ncc(NC(=O)C(=O)N2C[C@H](C)CC[C@@H]2C2CCCCC2)cc1C(N)=O (single isomer, unassigned) [Compound 389] | > 500 | 50 to 500 | > 500 |  | > 10000 | 
25 | Cc1cc(NC(=O)C(=O)N2C[C@H](C)CC[C@H]2c2ccc(S(C)(=O)=O)cc2)cnc1N (single isomer, unassigned) [Compound 938] | > 500 | > 500 | > 500 |  | > 10000 | 
26 | Cc1cc(NC(=O)C(=O)N2C[C@H](C)CC[C@H]2c2ccc3c(c2)CCNC3=O)cnc1N (single isomer, unassigned) [Compound 994] | > 500 | > 500 | > 500 |  | > 10000 | 
